Laboratory results reported in article PMC4268712, “Steroidal and non-steroidal third-generation aromatase inhibitors induce pain-like symptoms via TRPA1” (Nature Communications, 2014).

Columns and labels:
[1] = target: T1, transient receptor potential ankyrin 1 (TRPA1) (Homo sapiens, UniProt O75762); test: calcium imaging (and whole-cell patch clamp) in hTRPA1-HEK293 cells, blocked by HC-030031, absent in untransfected cells; type: cell-based
[2] = target: T1, transient receptor potential ankyrin 1 (TRPA1); test: calcium imaging in HEK293 cells transfected with wild-type hTRPA1 ([…]); type: cell-based

T1 sequence (O75762 whole entry): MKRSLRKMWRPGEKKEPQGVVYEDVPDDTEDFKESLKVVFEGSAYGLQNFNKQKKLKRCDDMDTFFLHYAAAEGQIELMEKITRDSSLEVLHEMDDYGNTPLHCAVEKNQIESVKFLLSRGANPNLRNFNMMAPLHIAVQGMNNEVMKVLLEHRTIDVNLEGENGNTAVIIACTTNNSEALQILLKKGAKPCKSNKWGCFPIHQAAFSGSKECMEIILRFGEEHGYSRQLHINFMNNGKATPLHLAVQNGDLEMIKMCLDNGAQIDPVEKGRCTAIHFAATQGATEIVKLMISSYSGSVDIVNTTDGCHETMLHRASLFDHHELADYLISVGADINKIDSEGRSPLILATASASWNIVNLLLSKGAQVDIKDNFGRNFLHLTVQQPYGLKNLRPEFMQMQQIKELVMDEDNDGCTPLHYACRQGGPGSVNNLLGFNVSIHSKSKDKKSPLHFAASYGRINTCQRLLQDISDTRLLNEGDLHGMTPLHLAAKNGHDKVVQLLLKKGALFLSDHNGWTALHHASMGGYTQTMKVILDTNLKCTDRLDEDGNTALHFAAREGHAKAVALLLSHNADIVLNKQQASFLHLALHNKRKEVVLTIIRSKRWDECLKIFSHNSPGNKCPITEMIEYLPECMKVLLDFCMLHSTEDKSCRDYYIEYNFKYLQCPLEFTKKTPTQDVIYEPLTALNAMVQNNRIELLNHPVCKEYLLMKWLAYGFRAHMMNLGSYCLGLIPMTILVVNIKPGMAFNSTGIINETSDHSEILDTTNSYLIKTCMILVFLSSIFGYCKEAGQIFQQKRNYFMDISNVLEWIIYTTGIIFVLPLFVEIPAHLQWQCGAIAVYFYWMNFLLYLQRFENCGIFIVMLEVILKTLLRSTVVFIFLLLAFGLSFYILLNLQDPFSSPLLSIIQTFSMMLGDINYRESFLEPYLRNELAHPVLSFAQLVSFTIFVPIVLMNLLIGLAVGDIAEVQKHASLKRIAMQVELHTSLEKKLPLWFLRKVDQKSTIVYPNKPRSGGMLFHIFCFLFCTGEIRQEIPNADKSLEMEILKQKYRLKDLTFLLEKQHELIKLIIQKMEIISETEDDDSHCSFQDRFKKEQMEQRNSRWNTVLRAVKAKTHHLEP

C=C1C[C@@H]2[C@H](CC[C@]3(C)C(=O)CC[C@@H]23)[C@@]2(C)C=CC(=O)C=C12 [EXE, exemestane]
EC50 [1]: 58 µM

N#Cc1ccc(C(c2ccc(C#N)cc2)n2cncn2)cc1 [LTZ, letrozole]
EC50 [1]: 69 µM

CC1CCC(C(C)C)C(O)C1 (stereo not shown) [menthol]
calcium imaging in HEK293 cells transfected with wild-type hTRPA1 (100 μM) [2]: HEK293 cells transfected with the cDNA codifying for wild-type hTRPA1 (WT) respond to all the drugs

CC(C)(C#N)c1cc(Cn2cncn2)cc(C(C)(C)C#N)c1 [ANA, anastrozole]
EC50 [1]: 134 µM
